This is an account of results in the NIST ThermoML archive (doi:10.1016/j.fluid.2017.03.015).

Numbers after ± are expanded uncertainties.

The conditions of the data set: Crystal; visual observation.
`C[n+]1ccn(CCO)c1.[Cl-]` [1-(2-hydroxyethyl)-3-methyl-1H-imidazolium chloride]: the Normal melting temperature worked out at 85.73 ± 0.41 °C. As to `CCCC[N+]1(C)CCCC1.[Cl-]` [1-butyl-1-methylpyrrolidinium chloride], the Normal melting temperature stood at 199.83 ± 0.41 °C. `CCn1cc[n+](C)c1.[Cl-]` [1-ethyl-3-methylimidazolium chloride]: the Normal melting temperature was 77.27 ± 0.41 °C. The same measure for `CCCCCCCCC(C[N+](C)(C)Cc1ccccc1)C(C)O.[Cl-]` (stereo not given) [benzyldimethyl-2-(1-hydroxyethyl)decylammonium chloride]: 78.27 ± 0.41 °C; for `CC(=O)[O-].C[N+](C)(C)CCO` [choline acetate]: 89.47 ± 0.41 °C; for `C[N+](C)(C)CCO.O=S(=O)([N-]S(=O)(=O)C(F)(F)F)C(F)(F)F` [choline bis(trifluoromethylsulfonyl)imide]: 32.50 ± 0.41 °C.

Consider `CCCC(=O)[O-].C[N+](C)(C)CCO` [choline butanoate], for which the Normal melting temperature was 42.83 ± 0.41 °C. Under `CCC(=O)[O-].C[N+](C)(C)CCO` [cholinium propanoate] stands 9.42 ± 0.41 °C; under `CCCC[N+](CCCC)(CCCC)CCCC.[Cl-]` [tetrabutylammonium chloride], 69.67 ± 0.41 °C. For `CCCC[P+](CCCC)(CCCC)CCCC.[Cl-]` [tetrabutylphosphonium chloride], the Normal melting temperature was found to be 66.31 ± 0.41 °C.
